How the values were obtained:
[1] = Calcein fluorescence stability in 1685 NYC III medium and G. vaginalis supernatant; assay type: physicochemical; conditions: 10 μg/mL calcein, 37° C., 140 hours
Method: Bacteria-responsive calcein release of liposomes. Calcein's stability in different media was evaluated by measuring its fluorescence intensity that varied with time in 1685 NYC III medium and G. vaginalis supernatant, respectively. Briefly, calcein was dissolved in the medium to reach a concentration of 10 μg/mL (with 1% v/v penicillin/streptomycin) added. The solution was incubated at 37° C. and shaken at 100 rpm (avoid light). Samples were taken at different time intervals and changes of fluorescence intensity were monitored.

[2] = tested on: human red blood cells (RBCs); assay: Hemolytic activity assay; assay type: cell-based; conditions: 2% human RBCs, 30 min, 37° C.
Method: Hemolytic Activity Assay. For hemolytic assays, washed human red blood cells (RBCs) (Innovative Research, Novi, MI USA) were suspended in 1×PBS (pH 7.2, Wisent, Quebec City, QC Canada) to a final concentration of 2%. For sequestration studies, liposomal samples were diluted in PBS to the desired concentration and added to the erythrocytes. The hemolytic reaction was then initiated through the addition of either bacterial supernatant normalized to a 0.5 McFarland standard or recombinant S. pneumoniae serotype 2 PLY (E. coli host expression, MyBioSource, San Diego, CA USA) at the desired volume or concentration. For assays involving PLY, the toxin was preincubated with 2 mM dithiothreitol (DTT) for 1 hr at room temperature prior to the assay in order to reduce the cysteine residue present in the undecapeptide sequence and activate the protein [59]. The solution was incubated in a 1.5 ml Eppendorf microtube for 30 min at 37° C. and non-lysed RBCs were pelleted via centrifugation at 1000×g for 10 min at 4° C. The supernatant was then collected and transferred to a 96 well plate, with the extent of hemoglobin release determined via absorbance measurements at 450 nm. A control set was also included, involving a negative control of RBCs in only PBS and a positive control of RBCs in a 0.02% Triton™ X-100 solution (100% lysis). Percent lysis was determined from these readouts as per Eq (4): […]

Compound	calcein fluorescence decrease [1]	concentration giving full lysis [2] [ng/mL]
O=C(O)CN(CC(=O)O)Cc1cc2c(cc1O)Oc1cc(O)c(CN(CC(=O)O)CC(=O)O)cc1C21OC(=O)c2ccccc21 [calcein]	11-15%	–
pneumolysin [PLY]	–	200
